For 17 molecules, inhibition in vivo and inhibition results are on record in patent US8735425B2, “Tetrahydroisoquinoline derivative” (Daiichi Sankyo Company, Limited, priority 2008, dated 2014).

One experiment relates to Male C57BL/6N mice. Briefly: Triglyceride absorption suppression after fat loading (in vivo DGAT1 inhibitory effect). Conditions: Mus musculus, po; dose of 10 mg/kg or lower, orally administered, mice fasted overnight, plasma triglyceride after fat loading; read-out: Triglyceride absorption suppressive activity. The procedure: The DGAT1 enzyme is important for the digestion and absorption of triglycerides, and the inhibition of DGAT1 in the small intestine suppresses the absorption of triglycerides. The in vivo activity of its DGAT1 inhibitory effect was evaluated with the suppressed absorption of triglycerides after fat loading as an index. Male C57BL/6N mice (7-12 weeks old, body weight: 17-25 g, Charles River Laboratories Japan Inc.) fasted overnight were assigned to Vehicle group 1, Vehicle group 2, and each test compound group, to which a vehicle (0.5% methylcellulose) or each test compound (1 to 10 mg/kg) suspended in vehicle was orally administered (5 mL/kg). After a given time, a lipoprotein lipase inhibitor (Pluronic-F127: Sigma-Aldrich Corp., 1 g/kg, 20% by weight dissolved in saline) was intraperitoneally administered (5 mL/kg) to each group. Immediately thereafter, distilled water for the Vehicle group 1 or a 20% fat-containing emulation (Intralipid 20%: TERUMO CORP., Japan) for the Vehicle group 2 and the compound groups were orally administered thereto (0.2 mL/mouse). After a given time of 1 to 4 hours after administration, blood was collected from the tail vein or the right ventricle, and plasma was immediately separated and collected. Then, the triglyceride concentration in plasma was measured using a commercially available kit (Triglyceride E-Test Wako: Wako Pure Chemical Industries, Ltd.). In this method, the administration of the lipoprotein lipase inhibitor suppresses the hydrolysis of triglycerides in the blood such that the triglycerides are accumulated in the blood. These triglycerides are derived from two origins: exogenous triglycerides absorbed in the gastrointestinal tract and endogenous triglycerides released from the liver. The triglyceride absorption suppressive activity of each test compound was calculated based on the equation shown below by removing the influence of the endogenous triglycerides. In this context, each test compound was separately confirmed to have no influence on the concentration of the endogenous triglycerides.
Triglyceride absorption suppressive activity (%)=100−[(Triglyceride concentration of each test compound group)−(Triglyceride concentration of Vehicle group 1)]/[(Triglyceride concentration of Vehicle group 2)−(Triglyceride concentration of Vehicle group 1)]×100

The target of another experiment is T1, DGAT1 enzyme (Homo sapiens, UniProt O75907).
T1 construct: made in house
T1 sequence (O75907 1-488): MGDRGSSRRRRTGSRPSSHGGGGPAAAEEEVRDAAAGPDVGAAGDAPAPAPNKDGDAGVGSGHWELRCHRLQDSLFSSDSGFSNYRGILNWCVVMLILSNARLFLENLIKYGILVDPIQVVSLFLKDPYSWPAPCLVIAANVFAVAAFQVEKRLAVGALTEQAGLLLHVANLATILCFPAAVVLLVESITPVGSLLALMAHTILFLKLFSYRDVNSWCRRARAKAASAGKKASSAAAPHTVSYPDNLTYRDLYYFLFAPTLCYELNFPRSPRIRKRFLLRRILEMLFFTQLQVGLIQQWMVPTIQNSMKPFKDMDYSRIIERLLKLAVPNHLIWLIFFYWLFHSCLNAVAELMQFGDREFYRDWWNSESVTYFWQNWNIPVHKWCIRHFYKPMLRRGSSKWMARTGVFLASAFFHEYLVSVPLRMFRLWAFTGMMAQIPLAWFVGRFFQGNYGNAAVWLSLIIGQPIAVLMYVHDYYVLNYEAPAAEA
Briefly: DGAT1 inhibitory activity test. It counts as biochemical. The conditions noted are these: test compound concentration of 0.05 μg/ml; read-out: Inhibitory Rate. The procedure:
DGAT1 enzyme was prepared and stored according to the method described in US2007/0249620.
(2) DGAT1 Inhibitory Activity Test
A reaction solution having the following composition was incubated at room temperature (23° C.) for 30 minutes: 175 mM Tris-HCl (pH 8.0), 8 mM MgCl2, 1 mg/ml BSA, 0.3 mM 1,2-dioleoyl-sn-glycerol (10-fold concentration of EtOH solution, 10% added), 10 μM [^14C]-oleoyl-CoA (approximately 50 mCi/mmol), 0.5% Triton X-100, the DGAT1 enzyme (10 μg) obtained in Test Example 1(1), and a test compound or vehicle (DMSO/MeOH, 7:3 solution, 5% added), […] in total. A reaction stop solution ([…] consisting of isopropanol/1-heptane/water (80:20:2, v/v/v) was added to the reaction solution and stirred. Subsequently, water (30 μl) and 1-heptane (100 μl) were added thereto and stirred. The 1-heptane layer (50 μl) was spotted onto a TLC plate and developed with a developing solvent consisting of 1-hexane/diethyl ether/acetic acid (85:15:1, v/v/v). The radioactivity of the triglyceride fraction was quantified using BAS2000 Bio Image Analyzer (FUJIFILM) and compared with the control. The inhibitory activity of the test compound was calculated according to the formula shown below. In this context, the radioactivity at no reaction (0 minute incubation) was used as background. Inhibitory Rate=100−[(Radioactivity of sample supplemented with test compound)−(Background)]/[(Radioactivity of control)−(Background)]×100

`O=C(O)C[C@H]1CC[C@H](OC(=O)N2CCc3cc(NC(=O)Nc4ccccc4F)ccc3C2)C1` (relative stereo) [Example 7, trans-6-[3-(2-fluoro-phenyl)-ureido]-3,4-dihydro-1H-isoquinoline-2-carboxylic acid 3-carboxymethyl-cyclopentyl ester]: in the experiment on Male C57BL/6N mice, the inhibition in vivo at up to 10 mg/kg was not below 60%. The inhibition at 0.05 µg/mL at DGAT1 enzyme is not below 50%.
The corresponding values for `C[C@H]1C[C@H](CC(=O)O)CC[C@H]1OC(=O)N1CCc2cc(NC(=O)Nc3ccccc3F)ccc2C1` (relative stereo) [Example 15, 6-[3-(2-fluoro-phenyl)-ureido]-3,4-dihydro-1H-isoquinoline-2-carboxylic acid t-4-carboxymethyl-c-2-methyl-r-1-cyclohexyl ester] are not below 60% and not below 50%.
The corresponding values for `C[C@@H]1C[C@H](CC(=O)O)CC[C@H]1OC(=O)N1CCc2cc(NC(=O)Nc3ccccc3F)ccc2C1` (relative stereo) [Example 16, 6-[3-(2-fluoro-phenyl)-ureido]-3,4-dihydro-1H-isoquinoline-2-carboxylic acid t-4-carboxymethyl-t-2-methyl-r-1-cyclohexyl ester] are not below 60% and not below 50%.
The corresponding values for `CCOc1cccc(NC(=O)Nc2ccc3c(c2)CCN(C(=O)O[C@@H]2CC[C@@H](CC(=O)O)C[C@H]2C)C3)c1` (relative stereo) [Example 99, 6-[3-(3-ethoxy-phenyl)-ureido]-3,4-dihydro-1H-isoquinoline-2-carboxylic acid t-4-carboxymethyl-t-2-methyl-r-1-cyclohexyl ester] are not below 60% and not below 50%.
With `CCOc1cccc(NC(=O)Nc2ccc3c(c2)CCN(C(=O)O[C@@H]2CC[C@@H](CC(=O)O)C[C@@H]2C)C3)c1` (relative stereo) [Example 100, 6-[3-(3-ethoxy-phenyl)-ureido]-3,4-dihydro-1H-isoquinoline-2-carboxylic acid t-4-carboxymethyl-c-2-methyl-r-1-cyclohexyl ester], the inhibition in vivo at up to 10 mg/kg in the experiment on Male C57BL/6N mice is not below 60%. Also, the inhibition at 0.05 µg/mL on DGAT1 enzyme was not below 50%.
The corresponding values for `COc1cccc(NC(=O)Nc2ccc3c(c2)CCN(C(=O)O[C@@H]2CC[C@@H](CC(=O)O)C[C@H]2C)C3)c1` (relative stereo) [Example 101, 6-[3-(3-methoxy-phenyl)-ureido]-3,4-dihydro-1H-isoquinoline-2-carboxylic acid t-4-carboxymethyl-t-2-methyl-r-1-cyclohexyl ester] are not below 60% and not below 50%.
The corresponding values for `O=C(O)C[C@H]1CC[C@H](OC(=O)N2CCc3cc(NC(=O)Nc4ccccc4F)ccc3C2)CC1` [Example 2, trans-6-[3-(2-fluoro-phenyl)-ureido]-3,4-dihydro-1H-isoquinoline-2-carboxylic acid 4-carboxymethyl-cyclohexyl ester] are not below 60% and not below 50%.
For the molecule `O=C(O)CC1CCC(NC(=O)N2CCc3cc(NC(=O)Nc4ccccc4F)ccc3C2)CC1` (centres unmarked) [Example 5, [4-({6-[3-(2-fluoro-phenyl)-ureido]-3,4-dihydro-1H-isoquinoline-2-carbonyl}-amino)-cyclohexyl]-acetic acid], the inhibition in vivo at up to 10 mg/kg in the experiment on Male C57BL/6N mice is not below 60%. In addition, the inhibition at 0.05 µg/mL on DGAT1 enzyme is not below 50%.
In the same order, the values of `O=C(Nc1ccc2c(c1)CCN(C(=O)O[C@H]1CC[C@H](C(=O)O)CC1)C2)Nc1ccccc1F` [Example 8, trans-6-[3-(2-fluoro-phenyl)-ureido]-3,4-dihydro-1H-isoquinoline-2-carboxylic acid 4-carboxy-cyclohexyl ester] are not below 60% and not below 50%.
Regarding `O=C(O)CCC1CCC(OC(=O)N2CCc3cc(NC(=O)Nc4ccccc4F)ccc3C2)CC1` (centres unmarked) [Example 10, 6-[3-(2-fluoro-phenyl)-ureido]-3,4-dihydro-1H-isoquinoline-2-carboxylic acid 4-(2-carboxy-ethyl)-cyclohexyl ester], the inhibition in vivo at up to 10 mg/kg in the experiment on Male C57BL/6N mice is not below 60%. The inhibition at 0.05 µg/mL on DGAT1 enzyme was not below 50%.
In the same order, the values of `O=C(O)C=C1CCC(OC(=O)N2CCc3cc(NC(=O)Nc4ccccc4F)ccc3C2)CC1` (centres unmarked) [Example 11, 6-[3-(2-fluoro-phenyl)-ureido]-3,4-dihydro-1H-isoquinoline-2-carboxylic acid 4-carboxymethylene-cyclohexyl ester] are not below 60% and not below 50%.
In the same order, the values of `O=C(O)CC1=CCC(OC(=O)N2CCc3cc(NC(=O)Nc4ccccc4F)ccc3C2)CC1` (centres unmarked) [Example 12, 6-[3-(2-fluoro-phenyl)-ureido]-3,4-dihydro-1H-isoquinoline-2-carboxylic acid 4-carboxymethyl-cyclohex-3-enyl-ester] are not below 60% and not below 50%.
In the same order, the values of `CC(C)(C(=O)O)[C@H]1CC[C@H](OC(=O)N2CCc3cc(NC(=O)Nc4ccccc4F)ccc3C2)CC1` [Example 13, trans-6-[3-(2-fluoro-phenyl)-ureido]-3,4-dihydro-1H-isoquinoline-2-carboxylic acid 4-(carboxy-1-methyl-ethyl)-cyclohexyl ester] are not below 60% and not below 50%.
As for `O=C(O)CC1CCC(CC(=O)N2CCc3cc(NC(=O)Nc4ccccc4F)ccc3C2)CC1` (centres unmarked) [Example 17, [4-(2-{6-[3-(2-fluoro-phenyl)-ureido]-3,4-dihydro-1H-isoquinolin-2-yl}-2-oxoethyl)-cyclohexyl]-acetic acid], the inhibition in vivo at up to 10 mg/kg with Male C57BL/6N mice is not below 60%. Also, at DGAT1 enzyme, the inhibition at 0.05 µg/mL is not below 50%.
In the same order, the values of `CCOc1cccc(NC(=O)Nc2ccc3c(c2)CCN(C(=O)O[C@H]2CC[C@H](CC(=O)O)CC2)C3)c1` [Example 20, trans-6-[3-(3-ethoxy-phenyl)-ureido]-3,4-dihydro-1H-isoquinoline-2-carboxylic acid 4-carboxymethyl-cyclohexyl ester] are not below 60% and not below 50%.
On to `O=C(Nc1ccc2c(c1)CCN(C(=O)O[C@H]1CC[C@H](CC(=O)OC[C@H](O)CO)CC1)C2)Nc1ccccc1F` [Example 46, trans-6-[3-(2-fluoro-phenyl)-ureido]-3,4-dihydro-1H-isoquinoline-2-carboxylic acid 4-((R)-2,3-dihydroxy-propoxycarbonylmethyl)-cyclohexyl ester], for which the inhibition in vivo at up to 10 mg/kg with Male C57BL/6N mice is not below 60%.
Still for that read-out and setting: with `CC(C)NC(=O)Nc1ccc2c(c1)CCN(C(=O)O[C@H]1CC[C@H](CC(=O)O)CC1)C2` [Example 81, trans-6-(3-isopropyl-ureido)-3,4-dihydro-1H-isoquinoline-2-carboxylic acid 4-carboxymethyl-cyclohexyl ester] the figure was not below 60%.
